This is an account of results in PubChem BioAssay (NCI).

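96-well plates; 48 h exposure; 5 concentrations. Endpoints by linear interpolation between flanking doses. Not reached: highest tested concentration assigned. GI50 is the concentration that inhibits growth by half. TGI: total growth inhibition.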

Common to all, as to assay: NCI-60 cell line screen, 48 h
Experiment [1] relates to HCC-2998 colon.
Experiment [2] concerns SN12C renal.
Experiment [3] relates to OVCAR-8 ovarian.
The test system of experiment [4] is M14 melanoma.
The test system of experiment [5] is RXF 393 renal.
Experiment [6] concerns SR leukemia.
The subject of experiment [7] is HT29 colon.
Experiment [8] relates to OVCAR-3 ovarian.
Experiment [9] concerns HCT-15 colon.
Experiment [10] deals with MCF7 breast.

On to `Cc1cc(NCCCCCCCCNc2cc(C)nc3cc(N)ccc23)c2ccc(N)cc2n1`, for which the TGI in [1] is 38.8 µM; in [2], above 100 µM; in experiment [3] it was 52.1 µM; in experiment [4], 35.6 µM; in [5], above 100 µM; in experiment [6], above 100 µM. The TGI in experiment [7] is 75 µM; in experiment [8], 37.4 µM; in experiment [9], above 100 µM.
On to `N#CCCN(c1ccc(C=Nc2ccccc2)cc1)S(=O)(=O)c1ccccc1`, for which the TGI in [1], in [2], in experiment [3], in experiment [4], in experiment [6] and in experiment [7] was above 100 µM each time. In addition, the TGI in [8] was above 100 µM.
`Cc1nc(-n2nc(-c3ccccc3)cc2-c2ccccc2)sc1C(=O)/C=C/c1ccc(/C=C/C(=O)c2sc(-n3nc(-c4ccccc4)cc3-c3ccccc3)nc2C)cc1`: the TGI in [1] is 39.3 µM; in [2], 43.5 µM; in [3] it was above 100 µM; in [4] it was 36.7 µM; in [5] it was 42.9 µM; in [6], 72.4 µM. The values for the TGI in [7], in [8] and in experiment [9] were 44.8 µM, 59.3 µM and above 100 µM, respectively.
Consider `C[C@@H](NC1CCCC[C@H]1O)c1ccccc1` (stereo partly drawn), for which the TGI in [1], in experiment [2], in [3], in [4], in experiment [5] and in experiment [7] was above 100 µM each time. Also, the TGI in experiment [8] and in [9] was above 100 µM throughout.
For the compound `O=C(NCCCCCCCCCCCCNC(=O)c1cccc2ccccc12)c1cccc2ccccc12`, the TGI in [1], in experiment [2], in experiment [3], in experiment [4], in experiment [5] and in experiment [6] was above 100 µM each time. In addition, the TGI in experiment [7] was above 100 µM; in experiment [8], above 67.6 µM; in [9], above 100 µM.
On to `CN1c2ccccc2N(C(=O)c2ccc([N+](=O)[O-])cc2)C(CC(=O)O)c2cccn21` (stereo not drawn), for which the TGI in experiment [1], in [2], in [3], in [4], in experiment [5] and in experiment [7] was above 100 µM in each case. The TGI in [8] and in experiment [9] was above 100 µM throughout.
For `Cn1cc(C(=O)c2ccccc2)c2ccccc2c1=O`, the TGI in experiment [1], in experiment [2], in experiment [3], in experiment [4], in experiment [5] and in experiment [6] was above 100 µM in each case. The TGI in experiment [7], in experiment [8] and in experiment [9] was above 100 µM throughout.
With `Nc1ncnc2c1ncn2[C@]1(CO)C=C(CO)C(O)C1O` (stereo partly drawn), the TGI in experiment [1], in experiment [2], in experiment [4], in experiment [5], in experiment [6] and in experiment [7] was above 100 µM in each case. This compound also gave a TGI in experiment [9] above 100 µM.
Regarding `O=C(N/C(=C\c1ccc(Cl)cc1)c1nc2ccccc2[nH]1)c1ccccc1`, the TGI worked out at 49.2 µM in experiment [2]; 52.8 µM in [3]; 34.1 µM in [4]; 42.7 µM in experiment [5]; 81.3 µM in experiment [7]; 49 µM in [8]. The compound also had a TGI in experiment [9] above 100 µM.
`COc1ccc(C/C(=N/O)C(=O)NCCc2cc(Br)c(OCCCN(C)C)c(Br)c2)cc1Br`: the TGI amounted to 28.5 µM in experiment [1]; 33.8 µM in experiment [2]; 49.1 µM in experiment [3]; 31.6 µM in experiment [4]; 38.5 µM in [5]; 19.1 µM in experiment [7]. This compound displayed a TGI in experiment [8] of 40.4 µM.
Consider `CCOC(=O)/C(=C/N1CCN(C(=O)c2ccco2)C1=S)C(=O)c1ccccc1`, for which the GI50 in [2] is 8.1 µM; in experiment [3], 11.7 µM; in [4], 8.86 µM; in experiment [6] it was 2.35 µM; in experiment [7] it was 19.2 µM; in experiment [8] it was 20.2 µM. For the same compound, the GI50 in experiment [9] is 6.33 µM. Also, the TGI in [2] is 17.4 µM; in experiment [3], 35.2 µM; in [4], 21 µM; in experiment [6], 16.4 µM; in experiment [7], above 50 µM; in experiment [8], above 50 µM. The compound further yielded a TGI in [9] of 18.5 µM.
On to `N#Cc1c(-c2ccc(Cl)c(Cl)c2)c(-c2ccc(Cl)c(Cl)c2)nn(CC(=O)O)c1=O`, for which the TGI in experiment [1] was above 100 µM; in experiment [2] it was above 100 µM; in experiment [3] it was above 100 µM; in experiment [4], above 100 µM; in experiment [5], 53.9 µM; in experiment [7], above 100 µM. Further, the TGI was 77.4 µM in [8] and above 100 µM in experiment [9].
In the case of `O=C(CC(Cl)=C(Cl)Cl)Nc1ccccc1`, the GI50 in [10], in experiment [2], in experiment [3], in [4], in experiment [5] and in [7] was above 100 µM in each case. Moreover, the GI50 in experiment [9] was above 100 µM. Besides, the TGI in experiment [10], in [2], in [3], in experiment [4], in experiment [5] and in experiment [7] was above 100 µM throughout. The TGI in [9] is above 100 µM.
Regarding `O=C(/C=C/c1cc(Cl)cc(Cl)c1O)c1cccc(O)c1`, the TGI is above 100 µM in experiment [1]; 27.7 µM in [2]; above 100 µM in experiment [3]; above 100 µM in [4]; above 100 µM in experiment [5]; 59.8 µM in [6]. Also, the TGI in [7], in experiment [8] and in experiment [9] was above 100 µM each time.
For the compound `COC(=O)C(C(=O)C(=O)Nc1c(C)cccc1C)c1cnc2ccccc2n1` (stereo not drawn), the TGI in experiment [1], in [2], in experiment [3], in experiment [4], in [5] and in experiment [6] was above 100 µM each time. Besides, the TGI in experiment [7] and in [9] was above 100 µM each time.
